Earlier results, collected in paper PMC12281572.
Several values for one entry are separate records, joined by “and”; a condition that tells them apart may be missing. Equal entries are not always repeated.

Assay: FTIR, 4-fluorophenol as donor (the pK_BHX database, per the paper)
Settings: CCl4; 25 C

| pK_BHX (log10 Kf of the 1:1 H-bond complex with 4-fluorophenol, by FTIR) | Compound |
| --- | --- |
| 0.8 log units | COc1cccc(C#N)c1 |
| 2.92 log units | Cc1ccc[n+]([O-])c1 |
| 1.05 log units | CCOC(=O)c1ccc(C)cc1 |
| 0.3 log units | CC(C)CN(C(C)C)C(C)C |
| -0.02 log units | CSCc1ccccc1 |
| 1.55 log units | O=[N+]([O-])C=CN1CCCCC1 |
| -0.07 log units | Cc1cc(C)c(C)c(C)c1C |
| 2.6 log units | CC(C)N=CN(C)C |
| 2.49 log units | CN(C)C(=O)c1ccc(N(C)C)cc1 |
| 1.61 log units | CC(=O)c1ccc(N2CCOCC2)cc1 |
| 0.23 log units | CN(C)n1cccc1 |
| 1.06 log units | COc1ccccc1C#N |
| 1.13 log units | CCOC(=O)c1ccc(OC)cc1 |
| 0.32 log units | c1ncncn1 |
| 1.49 log units | COC(=O)c1ccccc1OC |
| 1.27 log units | NCc1cc(Cl)cc(Cl)c1 |
| 1.67 log units | CN(C)c1ccc(C(=O)c2ccccc2)cc1 |
| 2.23 log units | CN(C)C(=O)c1ccccc1 |
| 2.0 log units | CN(C)C=NCc1cc(Cl)cc(Cl)c1 |
| -0.27 log units | ClC1CCCCC1 |
| -0.37 log units | COc1ccccc1C |
| 2.07 log units | CCN(CC)C(=O)N(c1ccccc1)c1ccccc1 |
| 2.13 log units | CCN(CC)C(=O)C(C)(C)C |
| 1.32 log units and 1.23 log units | CN(C)C=Nc1ccc(C#N)cc1 |

| pK_BHX (log10 Kf of the 1:1 H-bond complex with 4-fluorophenol, by FTIR) | Compound |
| --- | --- |
| -0.37 log units | CCCCCI |
| 1.33 log units | CCN(CC)c1ccc(N=O)cc1 |
| 2.16 log units | CCN(CC(=O)N(CC)c1ccccc1)c1ccccc1 |
| 1.67 log units | COc1ccc(C(=O)N(c2ccccc2)c2ccccc2)cc1 |
| 2.45 log units | CC(=O)N1CCCCC1 |
| 2.32 log units | CN(C)C=Nc1ccc(N(C)C)cc1 |
| 1.08 log units | CC(C)(C)C(=O)C12CC3CC(CC(C3)C1)C2 |
| 1.43 log units | CN(C)C=Nc1ccc(C(F)(F)F)cc1 |
| 0.88 log units | N#CC1CCCC1 |
| 2.59 log units | CN(C)C=NC1CCCCC1 |
| 1.94 log units | CCc1ccccn1 |
| 1.57 log units | CCCCCCCCN(CCCCCCCC)CCCCCCCC |
| 0.4 log units | CC(C)(C)SC(C)(C)C |
| 1.34 log units | N#CN1CCOCC1 |
| -0.22 log units | CSCSC |
| 0.1 log units | C=COCC |
| 0.52 log units | N#Cc1cc(Cl)cc(Cl)c1 |
| 0.86 log units | CC(=O)c1cccc(C(C)=O)c1 |
| 1.64 log units | C#CCNC |
| 1.98 log units | CCCN(C)C |
| 1.24 log units | CC(=Nc1cccc(Cl)c1)N(C)c1ccccc1 |
| 1.49 log units | CC(=NC(=S)SCc1ccccc1)N(C)C |
| 2.0 log units | C=CCNC |
| 0.18 log units | CCSC |

| pK_BHX (log10 Kf of the 1:1 H-bond complex with 4-fluorophenol, by FTIR) | Compound |
| --- | --- |
| 1.06 log units | CCN(CC)C(=O)C(F)(F)F |
| 2.09 log units | CN(C)C=NC#N |
| 0.64 log units | N#Cc1ccccc1F |
| 2.14 log units | CN(C)C(=O)c1ccc(F)cc1 |
| 3.12 log units | c1ncn(C2CCCCC2)c1C1CCCCC1 |
| 2.35 log units | CCN(CC)C(=O)c1ccc(OC)cc1 |
| 2.17 log units | CCCCN(C=O)CCCC |
| -0.08 log units | COc1cccc(OC)c1 |
| 1.61 log units | O=C(c1ccccc1)N(c1ccccc1)c1ccccc1 |
| 0.63 log units | C#CC(=O)OCC |
| 0.16 log units | c1ccc(N2CCCC2)cc1 |
| 1.47 log units | Cc1ccc(NC(=Nc2ccccc2)c2ccccc2)cc1 |
| 2.29 log units | CNCCNC |
| 2.29 log units | CCNC(C)=O |
| -0.41 log units | COC(C(F)(F)F)C(F)(F)F |
| 1.13 log units | Clc1ccc(N=C(Nc2ccccc2)c2ccccc2)cc1 |
| 1.53 log units | COc1ccc(N=C(c2ccccc2)N(C)c2ccccc2)cc1 |
| 2.68 log units | CC1CCN(c2ccncc2)CC1 |
| 2.52 log units | CC(C)CN=CN(C)C |
| 1.99 log units | CN(C)C=NCc1cccc(C(F)(F)F)c1 |
| 2.7 log units | CN=CN(C)C |
| -0.49 log units | Fc1nc(F)c(F)c(F)c1F |
| 2.21 log units | Cc1ccc(S(=O)c2ccc(C)cc2)cc1 |

| Compound | pK_BHX (log10 Kf of the 1:1 H-bond complex with 4-fluorophenol, by FTIR) |
| --- | --- |
| CS(=O)c1ccccc1 (stereo not shown) | 2.24 log units |
| Brc1cncnc1 | 0.59 log units |
| O=C1CCCCO1 | 1.57 log units |
| O=C(c1ccccc1)c1ccccc1 | 1.07 log units |
| COc1ccc(C(C)=O)cc1 | 1.33 log units |
| O=CN1CCOCC1 | 1.93 log units |
| CC(C)N(C#N)C(C)C | 1.74 log units |
| CC(C)O | 1.06 log units |
| CC(=O)c1cccc(C)c1 | 1.1 log units |
| NCc1ccccc1 | 1.84 log units |
| CC(C)c1ccccc1 | -0.34 log units |
| O=c1c2ccccc2oc2ccccc12 | 1.36 log units |
| CN1CCC(Cl)CC1 | 1.7 log units |
| CCN(C=O)CC | 2.16 log units |
| C1CN2CCN1CC2 | 2.33 log units |
| CCCN | 2.2 log units |
| CCOC(=O)OCC | 0.88 log units |
| CCOC(C)=O | 1.07 log units |
| CCN(CC)CC | 1.98 log units |
| CN1CCc2ccccc2C1 | 1.8 log units |
| CCN(C(=O)N(CC)c1ccccc1)c1ccccc1 | 2.16 log units |
| Brc1ccccc1 | -0.66 log units and -0.92 log units |

| Compound | pK_BHX (log10 Kf of the 1:1 H-bond complex with 4-fluorophenol, by FTIR) |
| --- | --- |
| O=S1(=O)CCCC1 | 1.17 log units |
| O=C1c2ccccc2Cc2ccccc21 | 1.25 log units |
| CC(C)(C)c1ccccc1 | -0.32 log units |
| CC(C)=O | 1.18 log units |
| CCOS(=O)OCC | 1.07 log units |
| Cc1ccnc(C)c1 | 2.21 log units |
| c1ccc2nc3ccccc3nc2c1 | 1.22 log units |
| Brc1ccccn1 | 1.03 log units |
| Nc1cccc(F)c1 | 0.2 log units |
| CN(C)C(=O)CCl | 1.74 log units |
| CC(C)(C)O | 1.14 log units |
| COc1cccc(C)c1 | 0.05 log units |
| O=C1CCCCCCCCCCC1 | 1.23 log units |
| c1ccccc1 | -0.49 log units |
| Cc1cccc(C)c1 | -0.28 log units |
| c1ccc(C(c2ccccc2)c2ccccc2)cc1 | -0.5 log units |
| NCCCCN | 2.21 log units |
| CC(=O)C(C)=O | 0.23 log units |
| CCCCCF | -0.06 log units |
| Cc1cccc(C)n1 | 2.14 log units |
| C=CCN(CC=C)CC=C | 1.34 log units |
| COC(C)=O | 1.0 log units |
